In patent publication US10626107B2, “Crystal form, salt type of substituted 2-hydro-pyrazole derivative and preparation method therefor” (CHIA TAI TIANQING PHARMACEUTICAL GROUP CO., LTD., priority 2016, dated 2020):

What was measured:
[1] = Study on the hygroscopicity (dynamic vapor sorption); format: physicochemical; conditions: 25° C. and 80% RH
Method: Model of instrument: SMSDVS Advantage dynamic vapor sorption analyzer
Test conditions: A sample (10 to 15 mg) was placed in a DVS sample pan for testing.
DVS parameters: • Temperature: 25° C. • Balance: dm/dt=0.01%/min (minimum: 10 min, maximum: 180 min) • Drying: drying for 120 min at 0% RH • Test gradient of RH (%): 10% • Test gradient range of RH (%): 0%-90%-0%

[2] = Solubility tests in different vehicles (HPLC); format: physicochemical; conditions: 26 °C, thermodynamic from solid, room temperature 25 to 27° C.
Method: Samples (about 2 mg) (if the sample was a salt, the required amount of the salt was calculated according to the salt factor in accordance with the criterion that the compound of formula (I) was 2 mg) were weighed respectively and added to a 1.5 mL glass vial. Different vehicles (1 mL) were then added respectively. The above-mentioned suspension was placed on a magnetic stirrer for stirring (room temperature 25 to 27° C.). After stirring for 24 hours, samples were taken. The samples were first centrifuged, and the supernatants were taken. After appropriate dilution according to the situation of the dissolution, the concentrations were determined by HPLC. The results were as follows:
Notes: • FaSSIF: to simulate the intestinal fluid in the small intestine of human in a hunger state before meal; • FeSSIF: to simulate the intestinal fluid in the small intestine of human in a full state after meal; • SGF: to simulate the gastric juice in the empty stomach of human in a hunger state

[3] = Solubility study at different pHs; format: physicochemical; conditions: 37° C.; for solubility at 4 h / solubility at 24 h: thermodynamic from solid; for Solubility 4 hrs / Solubility (24 hrs): LOQ = 0.0003 mg/mL
Method: A magnet was added to the above suspension, which was placed on a magnetic stirrer for stirring (temperature 37° C., dark). After respectively stirring for 4 hours and 24 hours, samples were taken and centrifuged, and the residual solids in the lower layers were tested by XRPD. The samples in the upper layers were filtered with a filtration membrane. The concentrations of the filtrates were determined by HPLC and the pHs were measured. After the HPLC system was equilibrated with a mobile phase, the analysis of the samples started.

[4] = system: human breast cancer MCF-7 subcutaneous xenograft tumor; format: in vivo; conditions: 18.75 mg/kg PO QD × 3W
Excerpt: Cell line-derived xenograft (CDX) BALB/c nude mice that were female, 6- to 8-week old, weighed 20 g, and subcutaneously implanted with human tumor cell line derived from MCF-7 breast cancer patients were used. A total of 150 mice were needed, which were purchased from Beijing Vital River Laboratory Animal Technology Co., Ltd.
BALB/c nude mice that were female, 6- to 8-week old, and weighed approximately 20 g were used. The mice were maintained in separate ventilated cages (10 mice per cage) in a special pathogen-free environment. All the cages, bedding and water were disinfected prior to use. All the animals were free to access a standard certified commercial laboratory diet. A total of 150 mice were purchased from Beijing Vital River Laboratory Animal Technology Co., Ltd. for research. Each mouse was implanted subcutaneously with an estrogen tablets (0.18 mg/tablet, 60-day sustained release) in the left back. After 3 days, each mouse was implanted with tumor cells (10×10^6 in 0.2 mL of phosphate buffer) subcutaneously in the right back for tumor growth. Administration was started when the average tumor volume reached about 150 to 200 mm^3. The test compounds were orally administered daily, and the administration dosages were as shown in the above table. The tumor volumes were measured twice a week using a two-dimensional caliper. The volumes were expressed in cubic millimeters and calculated by the following formula: V=0.5 a×b^2, wherein a and b were the long diameter and short diameter of a tumor, respectively. The anti-tumor efficacy was determined by dividing the average increase of the tumor volumes of the animals treated with a compound by the average increase of the tumor volumes of the animals without being treated with the compound.

[5] = system: human lung cancer LU-01-0393 subcutaneous xenograft tumor; assay: In vivo drug efficacy study (II): human lung cancer LU-01-0393 subcutaneous xenograft tumor model; set-up: species or system BALB/c nude mice; conditions: 45 mg/kg PO QD × 3W
Excerpt: Cell line-derived xenograft (CDX) BALB/c nude mice that were female, 6- to 8-week old, weighed 17 to 20 g, and subcutaneously implanted with human tumor cell line derived from LU-01-0393 lung cancer patient were used. A total of 72 mice were needed and were purchased from Shanghai Xipuer-Bikai Experimental Animal Co., Ltd. Human lung cancer LU-01-0393 tumor (i.e., non-small cell lung cancer) was originally derived from a clinical sample of a surgical resection. It was defined as passage PO after being inoculated to nude mice, and the tumor of passage PO was re-inoculated to nude mice and was then defined as passage P1, and so forth. Passage was performed in nude mice. LU-01-0393-FP5 was obtained from the transplantation after the recovery of P4. This study would use the tumor tissue of passage FP6.
BALB/c nude mice that were female, 6- to 8-week old, and weighed approximately 17 to 20 g were used. The mice were maintained in separate ventilated cages in a special pathogen-free environment. All the cages, bedding and water were disinfected prior to use. All the animals were free to access a standard certified commercial laboratory diet. A total of 72 mice purchased from Shanghai Xipuer-Bikai Experimental Animal Co., Ltd. were used for the study. The LU-01-0393 FP6 tumor tissue was cut to 20 to 30 mm^3 and inoculated to the right back of each mouse to wait for the tumor growth. When the average tumor volume reached about 171 mm^3, the mice were randomized into groups and administered. The test compounds were orally administered daily, and the administration dosages were as shown in the above table. The tumor diameters were measured twice a week using a two-dimensional caliper. The tumor volumes were calculated by the following formula: V=0.5 a×b^2, wherein a and b were the long diameter and the short diameter of a tumor, respectively. The anti-tumor efficacy was determined by dividing the average increase of the tumor volumes of the animals treated with a compound by the average increase of the tumor volumes of the animals without being treated with the compound.

[6] = aqueous buffer, pH 3.8 buffer (pH 3.80)
[7] = aqueous buffer, pH 4.5 buffer (pH 4.48)
[8] = aqueous buffer, pH 5.5 buffer (pH 5.52)
[9] = aqueous buffer, pH 6.0 buffer (pH 6.04)
[10] = simulated gastric fluid, 0.01N HCl (pH 1.99)
[11] = simulated gastric fluid, 0.1N HCl (pH 1.00)

Question: Which hygroscopic weight gain [1] does the source give for `CC(C)c1c2cc(-c3nc(Nc4ccc(N5CCNCC5)cn4)ncc3F)ccc2nn1C.O=C(O)/C=C\C(=O)O` [A crystal form of compound WX_1] here?
Answer: Its hygroscopic weight gain is 1.48%.

Question: What about the solubility at 24 h ([2]; simulated gastric fluid, SGF, read-out: Solubility SGF) of the same compound?
Answer: Its solubility at 24 h is greater than 2000 µg/mL.

Question: What about the solubility at 24 h ([2]; FaSSIF, read-out: Solubility FaSSIF) of the same compound?
Answer: Its solubility at 24 h is 23 µg/mL.

Question: And the solubility at 24 h ([2]; FeSSIF, read-out: Solubility FeSSIF)?
Answer: The solubility at 24 h was 1600 µg/mL.

Question: What about the solubility at 24 h ([2]; water, water, H2O, read-out: Solubility H2O) of the same compound?
Answer: The solubility at 24 h was 1140 µg/mL.

Question: And the “Description of Solubility” value ([3]; 0.01N HCl (pH 1.99))?
Answer: The value was “slightly soluble”.

Question: What about the “Description of Solubility” value ([3]; 0.1N HCl (pH 1.00)) of the same compound?
Answer: The value was “slightly soluble”.

Question: What about the solubility at 4 h [3, 6] of the same compound?
Answer: Its solubility at 4 h is greater than 2500 µg/mL.

Question: And the solubility at 24 h [3, 6]?
Answer: The solubility at 24 h was greater than 2500 µg/mL.

Question: And the solubility at 4 h [3, 7]?
Answer: Its solubility at 4 h is greater than 2500 µg/mL.

Question: What about the solubility at 24 h [3, 7] of the same compound?
Answer: Its solubility at 24 h is greater than 2500 µg/mL.

Question: What about the solubility at 4 h [3, 8] of the same compound?
Answer: Its solubility at 4 h is 110 µg/mL.

Question: What about the solubility at 24 h [3, 8] of the same compound?
Answer: Its solubility at 24 h is 138 µg/mL.

Question: What about the solubility at 4 h [3, 9] of the same compound?
Answer: The solubility at 4 h was 2 µg/mL.

Question: What about the solubility at 24 h [3, 9] of the same compound?
Answer: Its solubility at 24 h is 2 µg/mL.

Question: And the “Description of Solubility” value ([3]; pH 3.8 buffer (pH 3.80))?
Answer: Its value is “slightly soluble”.

Question: And the “Description of Solubility” value ([3]; pH 4.5 buffer (pH 4.48))?
Answer: Its value is “slightly soluble”.

Question: What about the “Description of Solubility” value ([3]; pH 5.5 buffer (pH 5.52)) of the same compound?
Answer: Its value is “sparingly soluble”.

Question: What about the “Description of Solubility” value ([3]; pH 6.0 buffer (pH 6.04)) of the same compound?
Answer: Its value is “practically insoluble”.

Question: What about the “Description of Solubility” value ([3]; pH 6.8 buffer (pH 6.80)) of the same compound?
Answer: Its value is “practically insoluble”.

Question: And the “Solubility 4 hrs” value ([3]; pH 6.8 buffer (pH 6.80))?
Answer: The value was “<LOQ*”.

Question: What about the “Solubility (24 hrs)” value ([3]; pH 6.8 buffer (pH 6.80)) of the same compound?
Answer: The value was “<LOQ”.

Question: And the “Description of Solubility” value ([3]; pH 7.4 buffer (pH 7.39))?
Answer: The value was “practically insoluble”.

Question: What about the “Solubility 4 hrs” value ([3]; pH 7.4 buffer (pH 7.39)) of the same compound?
Answer: The value was “<LOQ”.

Question: What about the “Solubility (24 hrs)” value ([3]; pH 7.4 buffer (pH 7.39)) of the same compound?
Answer: The value was “<LOQ”.

Question: What about the “Description of Solubility” value ([3]; purified water (pH 6.05)) of the same compound?
Answer: Its value is “slightly soluble”.

Question: What about the solubility at 4 h [3, 10] of the same compound?
Answer: Its solubility at 4 h is greater than 2500 µg/mL.

Question: What about the solubility at 24 h [3, 10] of the same compound?
Answer: Its solubility at 24 h is greater than 2500 µg/mL.

Question: What about the solubility at 4 h [3, 11] of the same compound?
Answer: Its solubility at 4 h is greater than 2500 µg/mL.

Question: What about the solubility at 24 h [3, 11] of the same compound?
Answer: The solubility at 24 h was greater than 2500 µg/mL.

Question: What about the solubility at 4 h ([3]; purified water (pH 6.05)) of the same compound?
Answer: Its solubility at 4 h is 1110 µg/mL.

Question: And the solubility at 24 h ([3]; purified water (pH 6.05))?
Answer: Its solubility at 24 h is 1220 µg/mL.

Question: And the “Tumor volume Day 0” value ([4]; Day 0)?
Answer: The value was 153 mm^3.

Question: What about the “Tumor volume Day 7” value ([4]; Day 7) of the same compound?
Answer: Its value is 156 mm^3.

Question: And the “Tumor volume Day 14” value ([4]; Day 14)?
Answer: Its value is 136 mm^3.

Question: And the “Tumor volume Day 20” value ([4]; Day 20)?
Answer: Its value is 98 mm^3.

Question: What about the “Tumor volume Day 0” value ([5]; Day 0) of the same compound?
Answer: The value was 171 ± 26 mm^3.

Question: And the “Tumor volume Day 7” value ([5]; Day 7)?
Answer: Its value is 172 ± 33 mm^3.

Question: And the “Tumor volume Day 14” value ([5]; Day 14)?
Answer: The value was 150 ± 29 mm^3.

Question: And the “Tumor volume Day 21” value ([5]; Day 21)?
Answer: The value was 175 ± 42 mm^3.
